{
  "source": "PubChem BioAssay AID488770",
  "about": "(The Scripps Research Institute Molecular Screening Center, 2010)",
  "note": "Active and inactive are the calls of the source.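 Rule for the calls: active = IC50 at or below 10 µM; inactive = IC50 above 10 µM.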",
  "data": [
    {"biological_target": "KH domain-containing RNA-binding protein QKI (Mus musculus) (UniProt Q9QYS9)", "sequence (Q9QYS9 whole entry, looked up, the tested form may be a part)": "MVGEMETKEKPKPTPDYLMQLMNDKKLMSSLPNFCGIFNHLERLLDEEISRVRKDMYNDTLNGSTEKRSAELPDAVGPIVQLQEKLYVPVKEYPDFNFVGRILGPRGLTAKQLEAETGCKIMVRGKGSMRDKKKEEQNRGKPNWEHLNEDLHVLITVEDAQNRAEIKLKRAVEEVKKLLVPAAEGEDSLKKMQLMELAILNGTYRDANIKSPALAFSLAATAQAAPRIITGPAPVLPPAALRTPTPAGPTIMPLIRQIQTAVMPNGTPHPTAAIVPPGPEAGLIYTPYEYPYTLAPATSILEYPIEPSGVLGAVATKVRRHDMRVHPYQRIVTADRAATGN", "assay": "inhibitors of QKI-RNA binding, dose response, gld-1 inhibitor project, biochemical, fluorescence polarization, mouse QKI, powder samples (AID 488770)", "details": "1536-well", "values": [
      {"smiles": "Nc1ccc2nonc2c1[N+](=O)[O-]", "IC50": "> 59600 nM (inactive)"},
      {"smiles": "Cc1ccc(S(=O)(=O)Nc2cc3c(C(=O)Nc4ccccc4)c(C)oc3c3ccccc23)c(C)c1", "IC50": "419 nM"},
      {"smiles": "CCOC(=O)c1c(C)oc2c1cc(NS(=O)(=O)c1ccc(C)cc1)c1ccccc12", "IC50": "> 59600 nM (inactive)"},
      {"smiles": "Cc1ccc(S(=O)(=O)Nc2cc3c(C(=O)Nc4ccccc4)c(C)oc3c3ccccc23)cc1", "IC50": "262 nM"},
      {"smiles": "CCN(CC)S(=O)(=O)c1ccc(N2CCCC2)c(NS(=O)(=O)c2ccc(F)cc2)c1", "IC50": "1620 nM"},
      {"smiles": "Nc1ccc(O)c2c1C(=O)c1ccccc1C2=O", "IC50": "2280 nM"},
      {"smiles": "O=C(CN1C(=O)NC2(CCCCC2)C1=O)Oc1ccc2c(C(F)(F)F)cc(=O)oc2c1", "IC50": "2130 nM"},
      {"smiles": "COc1ccc(C=Nc2c(-c3ccco3)nc3ccccn23)cc1OC", "IC50": "inactive"},
      {"smiles": "CCCCn1c(=O)[nH]c2nc3cc(NC(C)=O)ccc3nc2c1=O", "IC50": "1590 nM"},
      {"smiles": "CC1=CC(=O)c2c(O)ccc(O)c2C1=O", "IC50": "5620 nM"},
      {"smiles": "Nc1c(O)ccc2c1C(=O)c1ccccc1C2=O", "IC50": "2530 nM"},
      {"smiles": "COc1ccc(/C=C(\\CC(=O)O)c2nc3ccccc3s2)cc1O", "IC50": "155 nM"},
      {"smiles": "O=c1[nH]c(=O)c2nc3ccccc3nc2[nH]1", "IC50": "inactive"},
      {"smiles": "O=c1[nH]c2cc3ccccc3cc2nc1C(F)(F)F", "IC50": "1170 nM"},
      {"smiles": "O=C1C2=C(SCCS2)C(=O)N1CCCO", "IC50": "2240 nM"}
    ]}
  ]
}
